Laboratory results from paper PMC9400670, “Establishing the selective phospholipid membrane coordination, permeation and lysis properties for a series of ‘druggable’ supramolecular self-associating antimicrobial amphiphiles” (Chemical Science, 2022).

Assay: Mouse i.v. blood pharmacokinetic study
Type: in vivo, female CD-1 mice
Conditions: for enterohepatic recirculation: blood concentration-time profile, in words; for clearance: female, CD-1, mouse, 1 mg/kg, read-out: Cl blood; for clearance / Vd: SSA 3 derived based on AUC0–7h; for Cmax: 2% DMSO/98% H2O
Procedure: Within these studies SSAs 3 and 5 were dosed at 1 mg kg^−1, to female CD-1 mice (n = 9 per SSA) via an intravenous tail vein bolus dose formulation as solutions in 2% DMSO/98% water. Blood taken from the mouse tail vein was extracted by protein precipitation and SSA concentration calculated. The results of these studies are shown in Fig. 12 and Table 4. page 8: For the purpose of fu and SSA-3 PK determination, samples were analysed using a Waters I-Class ultra-high-performance liquid chromatography (UHPLC) system coupled to a Waters Xevo TQ-XS mass spectrometer. Separation of analytes was achieved using an Accucore Vanquish C18+ column (1.5 µm, 50 x 2.1 mm) at a temperature of 40°C and a binary mobile phase gradient at a flow rate of 0.4 mL/min. Initial LC conditions comprised 66% solvent A (0.1% formic acid + 5 mM ammonium acetate in water), 33% solvent B (0.1% formic acid + 5 mM ammonium acetate in methanol); this was ramped to 63% B at 1.8 min and 95% B at 1.9 min, held for 0.5 min and then immediately returned to initial conditions and held for the remaining 0.5 min of the method. Sample analysis was by electrospray ionisation combined with multiple reaction monitoring in negative ion mode. The capillary voltage was 0.8 kV, desolvation gas was 600°C. For the purpose of apparent permeability determination, samples were analysed using a Waters I- Class ultra-high-performance liquid chromatography (UHPLC) system coupled to a Waters Vion mass spectrometer (Waters, Elstree, UK). Separation of analytes was achieved used an Accucore Vanquish C18+ column (1.5 µm, 50 x 2.1 mm) at a temperature of 40°C and a binary mobile phase gradient at a flow rate of 0.4 mL/min. Initial LC conditions for SSA 1-4 comprised 66% solvent A (0.1% formic acid + 5 mM ammonium acetate in water), 33% solvent B (0.1% formic acid + 5 mM ammonium acetate in methanol); this was ramped to 63% B at 1.8 min and 95% B at 1.9 min, held for 0.5 min and then immediately returned to initial conditions and held for the remaining 0.5 min of the method. Initial LC conditions for SSA 5-10 comprised 54% solvent A (0.1% formic acid + 5 mM ammonium acetate in water), 46% solvent B (0.1% formic acid + 5 mM ammonium acetate in methanol); this was ramped to 67% B at 1.8 min and 95% B at 1.9 min, held for 0.5 min and then immediately returned to initial conditions and held for the remaining 0.5 min of the method. Sample analysis was by electrospray ionisation in negative ion mode. The capillary voltage was 2.5 kV, desolvation gas was 600°C. For the purpose of PK determination of SSA 5, samples were analysed using a Waters I-Class ultra- high-performance liquid chromatography (UHPLC) system coupled to a Waters Xevo TQ-XS mass spectrometer. Separation of analytes was achieved using an Accucore Vanquish C18+ column (1.5 µm, 50 x 2.1 mm) at a temperature of 40°C and a binary mobile phase gradient at a flow rate of 0.4 mL/min. Initial LC conditions comprised 54% solvent A (0.1% formic acid + 5 mM ammonium acetate in water), 46% solvent B (0.1% formic acid + 5 mM ammonium acetate in methanol); this was ramped to 67% B at 1.8 min and 95% B at 1.9 min, held for 0.5 min and then immediately returned to initial conditions and held for the remaining 0.5 min of the method. Sample analysis was by electrospray ionisation combined with multiple reaction monitoring in negative ion mode. The capillary voltage was 0.8 kV, desolvation gas was 600°C. Mean blood concentration-time profile: Within these studies SSAs 3 and 5 were dosed at 1 mg/kg, to female CD-1 mice (n=9 per SSA) via an intravenous tail vein bolus dose formulation as solutions in 2 % DMSO/98 % water. Blood taken from the mouse tail vein was extracted by protein precipitation. SSA concentrations were calculated through UPLC-MS/MS techniques, with tolbutamide as the internal standard. The assay met the acceptance criteria with >7 calibration standards within ± 20% of nominal concentration. The lower limit of quantitation was 2 ng/mL for both compounds. […]

[1] = blood, iv, i.v. 1 mg kg^−1, female CD-1 mice
[2] = i.v. 1 mg kg^−1, female CD-1 mice
[3] = mouse, blood, iv, i.v. 1 mg kg^−1, female CD-1 mice
[4] = mouse, iv, blood, i.v. 1 mg kg^−1, female CD-1 mice

Row | SMILES | Blood concentration of SSA (0.5 h post i.v. dosing) | Blood concentration of SSA (4.0 h post i.v. dosing) | enterohepatic recirculation (i.v. 1 mg kg^−1) | clearance [1] | Cl blood as % liver blood flow (LBF) [2] | half-life (mouse, blood, iv, elimination half-life, i.v. 1 mg kg^−1, female CD-1 mice) | Vd [3] | Cmax [4] | AUC(0-inf) [4] | AUC(0-t) [4] | Tmax [4]
1 | O=C(NCS(=O)(=O)O)Nc1ccccc1-c1nc2ccccc2s1 [SSA 5] | 643 nM | 11 nM | did not show any evidence of enterohepatic recirculation | ~31 mL/min/kg | 34 % LBF | 42 min | 0.9 L/kg | 4050 nM | 1.46 µM·h | 1.45 µM·h | 4.98 min
2 | O=C(NCS(=O)(=O)O)Nc1ccc(C(F)(F)F)cc1 [SSA 3] | 344 nM | 99 nM | undergoing enterohepatic recirculation | 25 mL/min/kg | 28 % LBF | – | 0.8 L/kg | 8090 nM | – | 2.28 µM·h | 4.98 min
